# According to ChEMBL document CHEMBL3885861, “Open TG-GATES”:
# Species on record: Rattus norvegicus
# Experiment: Open TG-GATES - Regimen: Daily Repeat
# Format: toxicity, organism-based, Sprague-Dawley
# Design: regimen Daily Repeat, gender Male, age 6 weeks
# Conditions: in vivo, po, route gavage; for A/G / ALP / ALT / AST / BUN / CRE / Ca / Cl / DBIL / GLC / IP / K / LDH / Na / PL / RALB / TBIL / TC / TG / TP / gamma-GTP: tissue Plasma; for APTT / Bas / Eos / Fbg / Hb / Ht / Lym / MCH / MCHC / MCV / Mono / Neu / PT / Plat / RBC / Ret / WBC: tissue Blood; for KIDNEY_L / KIDNEY_R / KIDNEY_TOTAL: tissue Kidney; for LIVER: tissue Liver
# [1] = 1 mg/kg, […], dose level Low, time 14 day
# [2] = 1 mg/kg, […], dose level Low, time 28 day
# [3] = 2 mg/kg, 72 h, dose level Middle, time 3 day
# [4] = 2 mg/kg, […], dose level Middle, time 7 day
# [5] = 2 mg/kg, […], dose level Middle, time 14 day
# [6] = 2 mg/kg, […], dose level Middle, time 28 day
# [7] = 5 mg/kg, 72 h, dose level High, time 3 day
# [8] = 5 mg/kg, […], dose level High, time 7 day
# [9] = 5 mg/kg, […], dose level High, time 14 day
smiles,measurement,setting,value
COc1ccc2c(c1)c(CC(=O)O)c(C)n2C(=O)c1ccc(Cl)cc1 [INDOMETHACIN],A/G,[1],1.8
same,ALP,[1],725.6 IU/L
same,ALT,[1],33.6 IU/L
same,AST,[1],60.6 IU/L
same,BUN,[1],19.6 mg/dL
same,CRE,[1],0.6 mg/dL
same,Ca,[1],10.5 mg/dL
same,Cl,[1],105.6 meq/L
same,DBIL,[1],0.004 mg/dL
same,GLC,[1],194.8 mg/dL
same,IP,[1],8.1 mg/dL
same,K,[1],4.5 meq/L
same,LDH,[1],87.2 IU/L
same,Na,[1],139.4 meq/L
same,PL,[1],165.2 mg/dL
same,RALB,[1],4.2 g/dL
same,TBIL,[1],0.3 mg/dL
same,TC,[1],81.2 mg/dL
same,TG,[1],161 mg/dL
same,TP,[1],6.5 g/dL
same,gamma-GTP,[1],1.4 IU/L
same,A/G,[2],1.9
same,ALP,[2],695.6 IU/L
same,ALT,[2],31 IU/L
same,AST,[2],62.6 IU/L
same,BUN,[2],21.6 mg/dL
same,CRE,[2],0.7 mg/dL
same,Ca,[2],10.6 mg/dL
same,Cl,[2],106.6 meq/L
same,DBIL,[2],0.008 mg/dL
same,GLC,[2],203.8 mg/dL
same,IP,[2],7.8 mg/dL
same,K,[2],4.2 meq/L
same,LDH,[2],101.8 IU/L
same,Na,[2],139.6 meq/L
same,PL,[2],157.8 mg/dL
same,RALB,[2],4.2 g/dL
same,TBIL,[2],0.3 mg/dL
same,TC,[2],77.8 mg/dL
same,TG,[2],178.4 mg/dL
same,TP,[2],6.5 g/dL
same,gamma-GTP,[2],1.2 IU/L
same,TERMINAL_BW,[3],238.9 g
same,APTT,[3],16 s
same,Bas,[3],0%
same,Eos,[3],0.6%
same,Fbg,[3],218.2 mg/dL
same,Hb,[3],13.5 g/dL
same,Ht,[3],40.5%
same,Lym,[3],82.2%
same,MCH,[3],21.1 pg
same,MCHC,[3],33.4%
same,MCV,[3],63.3 fL
same,Mono,[3],6.4%
same,Neu,[3],10.8%
same,PT,[3],11.1 s
same,Plat,[3],112.9 x10_4/uL
same,RBC,[3],638.8 x10_4/ul
same,Ret,[3],7.1%
same,WBC,[3],126.4 x10_2/uL
same,KIDNEY_L,[3],1.1 g
same,KIDNEY_R,[3],1.1 g
same,KIDNEY_TOTAL,[3],2.1 g
same,LIVER,[3],11.6 g
same,A/G,[3],2.1
same,ALP,[3],1212.4 IU/L
same,ALT,[3],32.8 IU/L
same,AST,[3],62 IU/L
same,BUN,[3],17 mg/dL
same,CRE,[3],0.6 mg/dL
same,Ca,[3],10.5 mg/dL
same,Cl,[3],107.2 meq/L
same,DBIL,[3],0.058 mg/dL
same,GLC,[3],199.6 mg/dL
same,IP,[3],8.3 mg/dL
same,K,[3],4.9 meq/L
same,LDH,[3],91.6 IU/L
same,Na,[3],139.6 meq/L
same,PL,[3],143.8 mg/dL
same,RALB,[3],3.9 g/dL
same,TBIL,[3],0.4 mg/dL
same,TC,[3],78.2 mg/dL
same,TG,[3],64.8 mg/dL
same,TP,[3],5.7 g/dL
same,gamma-GTP,[3],1 IU/L
same,TERMINAL_BW,[4],284.3 g
same,TERMINAL_BW,[5],341.8 g
same,TERMINAL_BW,[6],428.5 g
same,APTT,[4],16.5 s
same,Bas,[4],0%
same,Eos,[4],1%
same,Fbg,[4],240 mg/dL
same,Hb,[4],13.7 g/dL
same,Ht,[4],41.4%
same,Lym,[4],79.8%
same,MCH,[4],20.6 pg
same,MCHC,[4],33.1%
same,MCV,[4],62.2 fL
same,Mono,[4],8%
same,Neu,[4],11.6%
same,PT,[4],11.7 s
same,Plat,[4],112.9 x10_4/uL
same,RBC,[4],666.6 x10_4/ul
same,Ret,[4],6.2%
same,WBC,[4],126.6 x10_2/uL
same,APTT,[5],16.2 s
same,Bas,[5],0%
same,Eos,[5],0.8%
same,Fbg,[5],236.6 mg/dL
same,Hb,[5],14.2 g/dL
same,Ht,[5],43.1%
same,Lym,[5],86.4%
same,MCH,[5],20.5 pg
same,MCHC,[5],32.9%
same,MCV,[5],62.4 fL
same,Mono,[5],5.8%
same,Neu,[5],7.2%
same,PT,[5],11.8 s
same,Plat,[5],114.5 x10_4/uL
same,RBC,[5],689.8 x10_4/ul
same,Ret,[5],5.1%
same,WBC,[5],134.6 x10_2/uL
same,APTT,[6],16.9 s
same,Bas,[6],0%
same,Eos,[6],1%
same,Fbg,[6],255.2 mg/dL
same,Hb,[6],15.1 g/dL
same,Ht,[6],45.3%
same,Lym,[6],83.6%
same,MCH,[6],19.6 pg
same,MCHC,[6],33.4%
same,MCV,[6],58.6 fL
same,Mono,[6],3.8%
same,Neu,[6],11.4%
same,PT,[6],11.9 s
same,Plat,[6],101.6 x10_4/uL
same,RBC,[6],774.2 x10_4/ul
same,Ret,[6],3.1%
same,WBC,[6],136.4 x10_2/uL
same,KIDNEY_L,[4],1.2 g
same,KIDNEY_R,[4],1.2 g
same,KIDNEY_TOTAL,[4],2.4 g
same,KIDNEY_L,[5],1.3 g
same,KIDNEY_R,[5],1.3 g
same,KIDNEY_TOTAL,[5],2.6 g
same,KIDNEY_L,[6],1.5 g
same,KIDNEY_R,[6],1.5 g
same,KIDNEY_TOTAL,[6],3 g
same,LIVER,[4],14.5 g
same,LIVER,[5],16.3 g
same,LIVER,[6],18.6 g
same,A/G,[4],2
same,ALP,[4],1041.2 IU/L
same,ALT,[4],33.2 IU/L
same,AST,[4],61.4 IU/L
same,BUN,[4],19.4 mg/dL
same,CRE,[4],0.6 mg/dL
same,Ca,[4],11.3 mg/dL
same,Cl,[4],106.4 meq/L
same,DBIL,[4],0.006 mg/dL
same,GLC,[4],192.2 mg/dL
same,IP,[4],8.4 mg/dL
same,K,[4],4.8 meq/L
same,LDH,[4],105.8 IU/L
same,Na,[4],140 meq/L
same,PL,[4],163.8 mg/dL
same,RALB,[4],4.1 g/dL
same,TBIL,[4],0.4 mg/dL
same,TC,[4],88 mg/dL
same,TG,[4],134.2 mg/dL
same,TP,[4],6.3 g/dL
same,gamma-GTP,[4],1 IU/L
same,A/G,[5],1.9
same,ALP,[5],898.8 IU/L
same,ALT,[5],32 IU/L
same,AST,[5],53.2 IU/L
same,BUN,[5],22.6 mg/dL
same,CRE,[5],0.6 mg/dL
same,Ca,[5],10.8 mg/dL
same,Cl,[5],106.2 meq/L
same,DBIL,[5],0.006 mg/dL
same,GLC,[5],201.2 mg/dL
same,IP,[5],8.3 mg/dL
same,K,[5],4.7 meq/L
same,LDH,[5],89.8 IU/L
same,Na,[5],139.6 meq/L
same,PL,[5],151.4 mg/dL
same,RALB,[5],4.1 g/dL
same,TBIL,[5],0.3 mg/dL
same,TC,[5],72.2 mg/dL
same,TG,[5],141.2 mg/dL
same,TP,[5],6.3 g/dL
same,gamma-GTP,[5],1 IU/L
same,A/G,[6],1.7
same,ALP,[6],678.8 IU/L
same,ALT,[6],31.6 IU/L
same,AST,[6],65 IU/L
same,BUN,[6],21.4 mg/dL
same,CRE,[6],0.7 mg/dL
same,Ca,[6],10.7 mg/dL
same,Cl,[6],107 meq/L
same,DBIL,[6],0.004 mg/dL
same,GLC,[6],185.2 mg/dL
same,IP,[6],7.5 mg/dL
same,K,[6],4.4 meq/L
same,LDH,[6],90.4 IU/L
same,Na,[6],140.4 meq/L
same,PL,[6],157.4 mg/dL
same,RALB,[6],4.3 g/dL
same,TBIL,[6],0.3 mg/dL
same,TC,[6],80 mg/dL
same,TG,[6],179.2 mg/dL
same,TP,[6],6.8 g/dL
same,gamma-GTP,[6],1.8 IU/L
same,TERMINAL_BW,[7],240.2 g
same,APTT,[7],16.8 s
same,Bas,[7],0%
same,Eos,[7],0.6%
same,Fbg,[7],308.4 mg/dL
same,Hb,[7],12.7 g/dL
same,Ht,[7],38%
same,Lym,[7],68.4%
same,MCH,[7],21.5 pg
same,MCHC,[7],33.5%
same,MCV,[7],64.4 fL
same,Mono,[7],12.4%
same,Neu,[7],18.6%
same,PT,[7],11.1 s
same,Plat,[7],98 x10_4/uL
same,RBC,[7],589.8 x10_4/ul
same,Ret,[7],7.9%
same,WBC,[7],137.8 x10_2/uL
same,KIDNEY_L,[7],1.1 g
same,KIDNEY_R,[7],1.1 g
same,KIDNEY_TOTAL,[7],2.2 g
same,LIVER,[7],12.4 g
same,A/G,[7],1.7
same,ALP,[7],739.2 IU/L
same,ALT,[7],29.8 IU/L
same,AST,[7],54 IU/L
same,BUN,[7],16.2 mg/dL
same,CRE,[7],0.6 mg/dL
same,Ca,[7],10.5 mg/dL
same,Cl,[7],107.6 meq/L
same,DBIL,[7],0.038 mg/dL
same,GLC,[7],191.6 mg/dL
same,IP,[7],8.3 mg/dL
same,K,[7],4.6 meq/L
same,LDH,[7],160.4 IU/L
same,Na,[7],140.4 meq/L
same,PL,[7],147 mg/dL
same,RALB,[7],3.4 g/dL
same,TBIL,[7],0.3 mg/dL
same,TC,[7],76.2 mg/dL
same,TG,[7],135.4 mg/dL
same,TP,[7],5.5 g/dL
same,gamma-GTP,[7],1.6 IU/L
same,TERMINAL_BW,[8],244 g
same,APTT,[8],18.4 s
same,Bas,[8],0%
same,Eos,[8],0.8%
same,Fbg,[8],377 mg/dL
same,Hb,[8],11.7 g/dL
same,Ht,[8],35%
same,Lym,[8],51.5%
same,MCH,[8],20.4 pg
same,MCHC,[8],33.4%
same,MCV,[8],61.1 fL
same,Mono,[8],12.2%
same,Neu,[8],36%
same,PT,[8],11.8 s
same,Plat,[8],143.2 x10_4/uL
same,RBC,[8],571.8 x10_4/ul
same,Ret,[8],10.2%
same,WBC,[8],128.2 x10_2/uL
same,PT,[9],11.3 s
same,KIDNEY_L,[8],1.1 g
same,KIDNEY_R,[8],1.1 g
same,KIDNEY_TOTAL,[8],2.2 g
same,LIVER,[8],11.6 g
same,A/G,[8],1.2
same,ALP,[8],1313 IU/L
same,ALT,[8],31.2 IU/L
same,AST,[8],91.5 IU/L
same,BUN,[8],19.8 mg/dL
same,CRE,[8],0.6 mg/dL
same,Ca,[8],10.8 mg/dL
same,Cl,[8],102.2 meq/L
same,DBIL,[8],0.1 mg/dL
same,GLC,[8],169.8 mg/dL
same,IP,[8],11.3 mg/dL
same,K,[8],6.1 meq/L
same,LDH,[8],180.8 IU/L
same,Na,[8],133.5 meq/L
same,PL,[8],135.8 mg/dL
same,RALB,[8],2.9 g/dL
same,TBIL,[8],0.4 mg/dL
same,TC,[8],71 mg/dL
same,TG,[8],106.5 mg/dL
same,TP,[8],5.6 g/dL
same,gamma-GTP,[8],5.8 IU/L
same,TBIL,[9],0.3 mg/dL
same,TC,[9],66.5 mg/dL
